How the values were obtained:
Assay in all cases: drug sensitivity score (DSS2, normalised partial AUC of dose-response, 72 h CellTiter-Glo viability) (DSS (dimensionless)); higher = more sensitive (stronger growth inhibition / cytotoxicity); extreme values may be limits of the assay
[1] = tested on: CAF#5 (primary prostate cancer-associated fibroblasts of myCAF-like type)
Procedure, shortened: (§1)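 Cells were added to 384-well plates already holding compounds at five doses over a 10,000-fold range: low-passage primary prostate cancer-associated fibroblasts, PF179T, WPMY-1, LNCaP and 22Rv1. Viability was measured 72 h later by CellTiter-Glo 2.0 luminescence and scaled to vehicle and positive-control wells. The drug sensitivity score, computed in BREEZE, is a partial area under the fitted logistic dose–response curve divided by the log of its upper asymptote, with higher scores meaning greater sensitivity.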

[2] = tested on: WPMY-1
Procedure, shortened: as §1

[3] = tested on: CAF#3 (primary prostate cancer-associated fibroblasts of myCAF-like type)
Procedure, shortened: as §1

[4] = tested on: CAF#4 (primary prostate cancer-associated fibroblasts of iCAF-like type)
Procedure, shortened: as §1

[5] = tested on: PF179T
Procedure, shortened: as §1

[6] = tested on: CAF#7 (primary prostate cancer-associated fibroblasts of myCAF-like type)
Procedure, shortened: as §1

[7] = tested on: 22Rv1
Procedure, shortened: as §1

[8] = tested on: CAF#2 (primary prostate cancer-associated fibroblasts of iCAF-like type)
Procedure, shortened: as §1

[9] = tested on: CAF#1 (primary prostate cancer-associated fibroblasts of myCAF-like type)
Procedure, shortened: as §1

[10] = tested on: LNCAP
Procedure, shortened: as §1

[11] = tested on: CAF#6 (primary prostate cancer-associated fibroblasts of iCAF-like type)
Procedure, shortened: as §1

| SMILES | drug sensitivity score [1] | drug sensitivity score [2] | drug sensitivity score [3] | drug sensitivity score [4] | drug sensitivity score [5] | drug sensitivity score [6] | drug sensitivity score [7] | drug sensitivity score [8] | drug sensitivity score [9] | drug sensitivity score [10] | drug sensitivity score [11] |
| --- | --- | --- | --- | --- | --- | --- | --- | --- | --- | --- | --- |
| Nc1ccn([C@@H]2O[C@H](CO)[C@@H](O)[C@@H]2O)c(=O)n1 [Cytarabine] (tested concentration range 1-10000 nM) | 1.9 | 7.7 | 0 | 5.4 | 12.9 | 2.6 | 14.3 | 10 | 1.8 | 11.9 | 0.5 |
| CC(C)(C)c1nc(-c2cccc(NS(=O)(=O)c3c(F)cccc3F)c2F)c(-c2ccnc(N)n2)s1 [Dabrafenib] (tested concentration range 0.2-2500 nM) | 3.5 | 0 | 4.5 | 0 | 2.1 | 4.1 | 5.6 | 0.2 | 1.4 | 4.8 | 2.6 |
| COc1cc2ncnc(Nc3ccc(F)c(Cl)c3)c2cc1NC(=O)/C=C/CN1CCCCC1 [Dacomitinib] (tested concentration range 0.1-1000 nM) | 0 | 1 | 0.6 | 1.4 | 0.2 | 0 | 1 | 1 | 0.7 | 1.4 | 0 |
| Cc1c2oc3c(C)ccc(C(=O)N[C@@H]4C(=O)N[C@H](C(C)C)C(=O)N5CCC[C@H]5C(=O)N(C)CC(=O)N(C)[C@@H](C(C)C)C(=O)O[C@@H]4C)c3nc-2c(C(=O)N[C@@H]2C(=O)N[C@H](C(C)C)C(=O)N3CCC[C@H]3C(=O)N(C)CC(=O)N(C)[C@@H](C(C)C)C(=O)O[C@@H]2C)c(N)c1=O [Dactinomycin] (tested concentration range 0.1-1000 nM) | 21.1 | 26.5 | 23 | 17.2 | 17.2 | 22.6 | 31.8 | 23.2 | 24.7 | 39.3 | 19.8 |
| O=C(/C=C/c1cccnc1)NCCCCC1CCN(C(=O)c2ccccc2)CC1 [Daporinad] (tested concentration range 0.1-1000 nM) | 13.9 | 29.4 | 12.8 | 23.6 | 21.3 | 17.5 | 25.6 | 25.8 | 13.9 | 26.9 | 16.5 |
| CCN(CC)CCN(Cc1ccc(-c2ccc(C(F)(F)F)cc2)cc1)C(=O)Cn1c(SCc2ccc(F)cc2)nc(=O)c2c1CCC2 [Darapladib] (tested concentration range 0.1-1000 nM) | 0.7 | 1.3 | 0.1 | 1 | 0 | 0 | 3.7 | 0 | 0 | 0 | 0 |
| CC(O)c1cc(C(=O)N[C@@H](C)Cn2ccc(-c3ccc(C#N)c(Cl)c3)n2)n[nH]1 (stereo partly drawn) [Darolutamide] (tested concentration range 0.2-2500 nM) | 2.9 | 0 | 0.1 | 4.4 | 0 | 0 | 0.6 | 2.2 | 3.1 | 0.1 | 0 |
| Cc1nc(Nc2ncc(C(=O)Nc3c(C)cccc3Cl)s2)cc(N2CCN(CCO)CC2)n1 [Dasatinib] (tested concentration range 0.1-1000 nM) | 15.2 | 5.3 | 13.7 | 10.3 | 11.7 | 15.3 | 0 | 15.5 | 13.8 | 5 | 13 |
| COc1cccc2c1C(=O)c1c(O)c3c(c(O)c1C2=O)C[C@@](O)(C(C)=O)C[C@@H]3O[C@H]1C[C@H](N)[C@H](O)[C@H](C)O1 [Daunorubicin] (tested concentration range 0.1-1000 nM) | 6.6 | 10.7 | 6.4 | 4.2 | 8.6 | 8.4 | 12.9 | 9.4 | 7.3 | 17.5 | 7.9 |
| CC[C@@](C)(Nc1ccnc(-c2c[nH]c3ncccc23)n1)C(=O)NCC(F)(F)F [Decernotinib] (tested concentration range 1-10000 nM) | 0 | 0.7 | 0.5 | 0 | 0 | 0 | 0 | 0.1 | 0.2 | 0 | 0 |
| Nc1ncn([C@H]2C[C@H](O)[C@@H](CO)O2)c(=O)n1 [Decitabine] (tested concentration range 1-10000 nM) | 1.6 | 0.8 | 0.1 | 0 | 1.8 | 0 | 1.1 | 0.8 | 0 | 0 | 0.6 |
| CC(=O)N(O)CCCCCNC(=O)CCC(=O)N(O)CCCCCNC(=O)CCC(=O)N(O)CCCCCN [Deferoxamine] (tested concentration range 1-10000 nM) | 2.4 | 5.3 | 0.2 | 3.2 | 5.7 | 1.6 | 4.9 | 4.8 | 0.9 | 3.2 | 1.4 |
| O=C(O)CCCCC(CCSCc1ccccc1)SCc1ccccc1 (stereo not drawn) [Devimistat] (tested concentration range 1-10000 nM) | 0 | 0 | 0 | 0 | 0 | 0 | 0 | 0 | 0 | 0 | 0 |
| C[C@@H]1C[C@H]2[C@@H]3CCC4=CC(=O)C=C[C@]4(C)[C@@]3(F)[C@@H](O)C[C@]2(C)[C@@]1(O)C(=O)CO [Dexamethasone] (tested concentration range 1-10000 nM) | 0 | 0 | 0 | 0 | 0 | 0.3 | 0 | 0 | 0 | 0 | 0 |
| C[C@H]1O[C@@H](O[C@H]2[C@@H](O)C[C@H](O[C@H]3[C@@H](O)C[C@H](O[C@H]4CC[C@@]5(C)[C@H](CC[C@@H]6[C@@H]5C[C@@H](O)[C@]5(C)[C@@H](C7=CC(=O)OC7)CC[C@]65O)C4)O[C@@H]3C)O[C@@H]2C)C[C@H](O)[C@@H]1O [Digoxin] (tested concentration range 0.1-1000 nM) | 13.4 | 14.7 | 8.7 | 19.4 | 13.6 | 11.2 | 14.4 | 13.8 | 10.2 | 12 | 10.8 |
| CCc1cnn2c(NCc3ccc[n+]([O-])c3)cc(N3CCCC[C@H]3CCO)nc12 [Dinaciclib] (tested concentration range 0.1-1000 nM) | 18 | 18.9 | 12.3 | 13 | 10.6 | 15.9 | 21.5 | 18.2 | 18.5 | 27.6 | 14.2 |
| CCN(CC)C(=S)SSC(=S)N(CC)CC [Disulfiram] (tested concentration range 5-50000 nM) | 6.6 | 0 | 0 | 0.9 | 0 | 0.1 | 0 | 3.7 | 5 | 0.1 | 0 |
| CC(=O)O[C@@]12CO[C@@H]1C[C@H](O)[C@@]1(C)C(=O)[C@H](O)C3=C(C)[C@@H](OC(=O)[C@H](O)[C@@H](NC(=O)OC(C)(C)C)c4ccccc4)C[C@@](O)([C@@H](OC(=O)c4ccccc4)[C@H]21)C3(C)C [Docetaxel] (tested concentration range 0.1-1000 nM) | 17.2 | 28.3 | 12.8 | 14.2 | 19.7 | 25.6 | 25.4 | 20.6 | 16.4 | 34.6 | 16.7 |
| Cc1ccc(-n2nc(C(C)(C)C)cc2NC(=O)Nc2ccc(OCCN3CCOCC3)c3ccccc23)cc1 [Doramapimod] (tested concentration range 1-10000 nM) | 0.6 | 0 | 1.2 | 0 | 2.1 | 1.4 | 2.5 | 2.7 | 1.9 | 5.4 | 0.9 |
| CN1CCN(c2ccc3nc(-c4c(N)c5c(F)cccc5[nH]c4=O)[nH]c3c2)CC1 [Dovitinib] (tested concentration range 1-10000 nM) | 0.8 | 0 | 0.7 | 0 | 0 | 0 | 0.2 | 2.6 | 0.2 | 0.3 | 0 |
| COc1cccc2c1C(=O)c1c(O)c3c(c(O)c1C2=O)C[C@@](O)(C(=O)CO)C[C@@H]3O[C@H]1C[C@H](N)[C@H](O)[C@H](C)O1 [Doxorubicin] (tested concentration range 0.1-1000 nM) | 6.7 | 9.8 | 0 | 2.6 | 7.5 | 0 | 12.2 | 7.8 | 6.5 | 0 | 0 |
| C[C@H](Nc1ncnc2nc[nH]c12)c1cc2cccc(Cl)c2c(=O)n1-c1ccccc1 [Duvelisib] (tested concentration range 0-500 nM) | 2.3 | 0.5 | 3.4 | 1.7 | 1.7 | 1.9 | 0 | 1 | 1.1 | 11 | 1.3 |
| NC(=O)/C(=C/n1cnc(-c2cc(C(F)(F)F)cc(C(F)(F)F)c2)n1)c1cncnc1 [Eltanexor] (tested concentration range 1-10000 nM) | 16.8 | 27.5 | 10.8 | 15.5 | 18.2 | 14.4 | 31.1 | 22.8 | 14.5 | 28.6 | 12.1 |
